What was measured:
[1] = molecular target: T1, Ephrin type-A receptor 8 (Homo sapiens) (UniProt P29322); assay: Inhibition of human recombinant EphA8 at 40 nM related to control ULK1
T1 sequence (whole entry): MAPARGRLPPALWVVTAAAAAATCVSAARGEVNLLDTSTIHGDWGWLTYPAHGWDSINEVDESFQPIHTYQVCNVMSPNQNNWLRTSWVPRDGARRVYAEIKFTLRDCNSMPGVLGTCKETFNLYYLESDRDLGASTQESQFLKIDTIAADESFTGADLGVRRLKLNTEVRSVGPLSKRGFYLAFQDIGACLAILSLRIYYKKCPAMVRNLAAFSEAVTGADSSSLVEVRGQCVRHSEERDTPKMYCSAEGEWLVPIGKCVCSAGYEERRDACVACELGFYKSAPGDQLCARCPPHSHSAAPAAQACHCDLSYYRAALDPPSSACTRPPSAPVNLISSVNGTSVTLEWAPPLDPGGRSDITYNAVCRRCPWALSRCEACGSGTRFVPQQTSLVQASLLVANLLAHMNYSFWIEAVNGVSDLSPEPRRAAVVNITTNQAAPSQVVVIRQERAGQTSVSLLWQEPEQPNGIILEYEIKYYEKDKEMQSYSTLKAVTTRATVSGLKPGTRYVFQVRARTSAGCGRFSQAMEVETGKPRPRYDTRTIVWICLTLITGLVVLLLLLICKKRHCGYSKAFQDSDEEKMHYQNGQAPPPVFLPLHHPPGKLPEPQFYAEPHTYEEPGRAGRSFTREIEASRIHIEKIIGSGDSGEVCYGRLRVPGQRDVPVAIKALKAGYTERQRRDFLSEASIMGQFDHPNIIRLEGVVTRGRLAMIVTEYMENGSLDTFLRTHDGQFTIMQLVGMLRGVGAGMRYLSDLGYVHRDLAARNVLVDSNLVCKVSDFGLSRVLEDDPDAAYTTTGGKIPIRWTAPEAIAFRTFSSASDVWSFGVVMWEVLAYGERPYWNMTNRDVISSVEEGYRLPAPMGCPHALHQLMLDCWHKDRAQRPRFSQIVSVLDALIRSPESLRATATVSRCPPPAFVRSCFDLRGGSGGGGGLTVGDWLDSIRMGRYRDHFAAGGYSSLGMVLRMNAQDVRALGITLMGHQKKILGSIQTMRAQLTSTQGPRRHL

[2] = molecular target: Ribosomal protein S6 kinase alpha-2 (Homo sapiens) (UniProt Q15349); assay: Inhibition of human recombinant RSK3 at 15 nM related to control ULK1
Ribosomal protein S6 kinase alpha-2 (Homo sapiens), sequence (Q15349 whole entry): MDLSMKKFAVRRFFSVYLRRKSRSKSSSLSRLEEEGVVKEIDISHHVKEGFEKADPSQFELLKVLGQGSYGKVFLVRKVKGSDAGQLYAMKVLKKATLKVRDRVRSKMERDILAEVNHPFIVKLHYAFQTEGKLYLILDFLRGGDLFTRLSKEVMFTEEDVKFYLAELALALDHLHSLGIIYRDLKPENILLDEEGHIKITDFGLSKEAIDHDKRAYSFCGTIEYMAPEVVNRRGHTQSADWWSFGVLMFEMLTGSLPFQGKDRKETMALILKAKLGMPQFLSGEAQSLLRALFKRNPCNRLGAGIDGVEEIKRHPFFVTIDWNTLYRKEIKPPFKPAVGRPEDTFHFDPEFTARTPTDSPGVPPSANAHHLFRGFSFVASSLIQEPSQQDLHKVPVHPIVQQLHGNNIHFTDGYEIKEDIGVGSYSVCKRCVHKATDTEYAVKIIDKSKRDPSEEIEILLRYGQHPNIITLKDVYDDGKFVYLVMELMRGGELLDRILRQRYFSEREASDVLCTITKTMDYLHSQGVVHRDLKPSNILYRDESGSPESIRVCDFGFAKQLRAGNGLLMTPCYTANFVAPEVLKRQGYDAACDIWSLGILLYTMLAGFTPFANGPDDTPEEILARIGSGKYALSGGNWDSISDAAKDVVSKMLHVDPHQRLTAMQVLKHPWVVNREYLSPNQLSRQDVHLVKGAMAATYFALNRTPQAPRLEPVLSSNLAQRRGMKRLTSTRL

[3] = molecular target: Receptor-type tyrosine-protein kinase FLT3 (Homo sapiens) (UniProt P36888); assay: Inhibition of human recombinant FLT3 at 15 nM related to control ULK1
Receptor-type tyrosine-protein kinase FLT3 (Homo sapiens), sequence (P36888 whole entry): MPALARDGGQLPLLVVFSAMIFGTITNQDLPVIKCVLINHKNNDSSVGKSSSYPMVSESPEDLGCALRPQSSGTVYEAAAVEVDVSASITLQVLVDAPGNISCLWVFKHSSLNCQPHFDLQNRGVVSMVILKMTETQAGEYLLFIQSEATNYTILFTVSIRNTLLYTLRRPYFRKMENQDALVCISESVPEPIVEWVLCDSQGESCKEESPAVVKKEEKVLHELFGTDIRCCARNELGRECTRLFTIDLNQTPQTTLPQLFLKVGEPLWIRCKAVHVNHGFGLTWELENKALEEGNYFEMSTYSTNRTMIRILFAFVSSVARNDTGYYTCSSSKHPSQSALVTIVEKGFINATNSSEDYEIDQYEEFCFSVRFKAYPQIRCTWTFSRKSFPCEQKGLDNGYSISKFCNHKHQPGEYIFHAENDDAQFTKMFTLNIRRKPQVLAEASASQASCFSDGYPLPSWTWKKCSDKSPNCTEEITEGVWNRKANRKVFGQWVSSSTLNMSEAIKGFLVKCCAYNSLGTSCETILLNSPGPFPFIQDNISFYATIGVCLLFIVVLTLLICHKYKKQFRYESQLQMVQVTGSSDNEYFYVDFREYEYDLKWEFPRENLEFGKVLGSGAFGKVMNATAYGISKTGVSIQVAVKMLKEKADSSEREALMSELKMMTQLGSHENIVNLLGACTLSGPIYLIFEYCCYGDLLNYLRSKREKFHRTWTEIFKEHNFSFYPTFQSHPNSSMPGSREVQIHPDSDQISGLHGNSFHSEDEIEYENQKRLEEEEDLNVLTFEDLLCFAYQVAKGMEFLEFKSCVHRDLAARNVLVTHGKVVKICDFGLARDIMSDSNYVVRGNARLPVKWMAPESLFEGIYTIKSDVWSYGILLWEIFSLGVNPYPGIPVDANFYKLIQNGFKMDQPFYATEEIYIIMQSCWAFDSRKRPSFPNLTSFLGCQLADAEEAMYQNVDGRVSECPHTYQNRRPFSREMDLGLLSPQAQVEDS

[4] = molecular target: T2, Serine/threonine-protein kinase 17A (Homo sapiens) (UniProt Q9UEE5); assay: Inhibition of human recombinant DRAK1 at 15 nM in presence of ATP by radiometric assay relative to control
T2 sequence (whole entry): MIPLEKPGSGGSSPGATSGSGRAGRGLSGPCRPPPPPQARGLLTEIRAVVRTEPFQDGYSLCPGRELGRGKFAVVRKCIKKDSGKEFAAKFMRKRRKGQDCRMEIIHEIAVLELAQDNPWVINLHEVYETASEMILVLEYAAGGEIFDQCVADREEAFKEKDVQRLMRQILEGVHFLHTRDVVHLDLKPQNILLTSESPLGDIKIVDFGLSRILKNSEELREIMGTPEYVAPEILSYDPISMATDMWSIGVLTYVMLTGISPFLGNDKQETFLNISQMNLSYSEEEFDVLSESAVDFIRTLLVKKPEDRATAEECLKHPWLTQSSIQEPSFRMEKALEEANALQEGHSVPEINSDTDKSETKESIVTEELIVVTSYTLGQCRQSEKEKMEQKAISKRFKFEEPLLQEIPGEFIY

[5] = molecular target: Receptor-interacting serine/threonine-protein kinase 2 (Homo sapiens) (UniProt O43353); assay: Inhibition of human recombinant RIPK2 at 15 nM in presence of ATP by radiometric assay relative to control
Receptor-interacting serine/threonine-protein kinase 2 (Homo sapiens), sequence (O43353 whole entry): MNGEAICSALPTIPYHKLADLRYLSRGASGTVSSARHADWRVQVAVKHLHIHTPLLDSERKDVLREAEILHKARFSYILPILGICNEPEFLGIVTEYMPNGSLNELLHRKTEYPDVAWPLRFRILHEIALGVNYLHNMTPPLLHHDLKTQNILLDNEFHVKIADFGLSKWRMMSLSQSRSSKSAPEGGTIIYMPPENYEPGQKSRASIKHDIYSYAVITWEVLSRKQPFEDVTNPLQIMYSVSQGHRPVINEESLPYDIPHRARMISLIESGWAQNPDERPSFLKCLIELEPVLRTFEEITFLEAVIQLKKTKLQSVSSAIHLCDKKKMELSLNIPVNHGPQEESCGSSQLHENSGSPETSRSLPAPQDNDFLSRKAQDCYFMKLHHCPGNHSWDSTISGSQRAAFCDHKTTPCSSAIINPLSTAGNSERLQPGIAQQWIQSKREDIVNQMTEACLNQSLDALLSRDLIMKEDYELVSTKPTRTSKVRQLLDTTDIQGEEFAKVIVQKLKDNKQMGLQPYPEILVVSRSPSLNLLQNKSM

[6] = molecular target: T3, Serine/threonine-protein kinase Nek9 (Homo sapiens) (UniProt Q8TD19); assay: Inhibition of human recombinant NEK9 at 500 nM in presence of ATP by radiometric assay relative to control
T3 sequence (whole entry): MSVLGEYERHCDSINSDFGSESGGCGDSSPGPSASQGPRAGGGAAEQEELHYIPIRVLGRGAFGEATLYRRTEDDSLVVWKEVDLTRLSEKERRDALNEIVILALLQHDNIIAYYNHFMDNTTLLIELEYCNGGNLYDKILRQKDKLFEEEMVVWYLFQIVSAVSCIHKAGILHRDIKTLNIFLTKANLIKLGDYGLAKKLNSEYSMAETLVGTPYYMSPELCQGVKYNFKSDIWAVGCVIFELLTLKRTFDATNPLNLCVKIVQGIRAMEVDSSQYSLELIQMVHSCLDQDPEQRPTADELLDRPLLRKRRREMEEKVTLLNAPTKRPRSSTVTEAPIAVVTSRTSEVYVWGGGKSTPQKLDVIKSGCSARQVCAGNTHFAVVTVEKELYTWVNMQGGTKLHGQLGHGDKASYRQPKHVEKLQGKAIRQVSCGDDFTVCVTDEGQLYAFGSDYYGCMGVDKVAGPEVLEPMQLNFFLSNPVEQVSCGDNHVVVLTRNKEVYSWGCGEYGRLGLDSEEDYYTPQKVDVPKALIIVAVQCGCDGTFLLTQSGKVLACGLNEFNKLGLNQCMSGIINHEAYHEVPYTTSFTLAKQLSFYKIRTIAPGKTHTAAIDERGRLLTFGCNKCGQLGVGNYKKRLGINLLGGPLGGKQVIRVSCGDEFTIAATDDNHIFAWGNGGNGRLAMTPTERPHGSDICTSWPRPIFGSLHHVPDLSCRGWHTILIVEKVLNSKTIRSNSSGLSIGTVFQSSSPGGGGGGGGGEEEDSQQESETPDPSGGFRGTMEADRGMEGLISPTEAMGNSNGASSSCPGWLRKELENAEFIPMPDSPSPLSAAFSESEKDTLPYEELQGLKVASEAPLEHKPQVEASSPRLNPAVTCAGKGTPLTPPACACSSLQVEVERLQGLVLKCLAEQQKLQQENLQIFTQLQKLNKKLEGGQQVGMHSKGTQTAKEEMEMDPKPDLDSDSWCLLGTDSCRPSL

## O=C(N[C@@H](C1CC1)C(F)(F)F)c1cc(-c2cnn3cc(-c4ccc(F)cc4)cnc23)cs1
[1]
  fold change (FC): 0

## CC(C)[C@H](NC(=O)c1cc(-c2cnn3cc(-c4ccc(OCCN5CCCCC5)cc4)cnc23)cs1)C(F)(F)F
[2]
  fold change (FC): 0.03
[3]
  fold change (FC): 0.77
[4]
  inhibition: 71%
[5]
  inhibition: 10%

## CNC(=O)c1ccccc1Oc1nc(Nc2cc(OC)c(OC)c(OC)c2)ncc1Br
[6]
  inhibition: 0%

From ChEMBL document CHEMBL5653631, “A Potent and Selective ULK1 Inhibitor Suppresses Autophagy and Sensitizes Cancer Cells to Nutrient Stress” (iScience, 2018)
